{"source": "patent US20130129656A1", "about": "“\"GREEN\" DIESTER AMINES AND PERSONAL CARE PRODUCTS” (CRODA, INC., priority 2010, published 2013)", "key": {"[1]": {"experiment": "Biodegradability via method OECD 301B", "conditions": "after 29 days", "from_the_text": "In some embodiments, the compounds of the present invention are biodegradable as provided by standardized OECD 301B testing. The testing methodology is described in the “OECD Guideline for Testing Chemicals,” section 301, the disclosure of which is incorporated by reference. Specifically, the compounds of the present invention showing a biodegradability of at least about 50% according to the OECD 301B testing method. In some embodiments, the compounds of the present invention have a biodegradability of between about 50% to about 81% according to the OECD 301B testing method.\n(§1) Quat from example 3 was tested for biodegradability via method OECD 301B and Aquatic Toxicity via method OECD 202."}, "[2]": {"test_system": "daphnia magna", "experiment": "Aquatic toxicity via method OECD 202 (Daphnia sp. Acute Immobilization Test)", "type": "in vivo", "conditions": "OECD 202, daphnia magna", "method": "In some embodiments, the compounds of the present invention are believed to have low aquatic toxicities. […] […] The testing methodology is described in “OECD Guideline for Testing of Chemicals,” section 202, the disclosure of which is incorporated by reference.\nas §1"}, "[3]": {"experiment": "Wet combing evaluation of lotions (combing force reduction)", "method": "Lotions with and without Example 3 Quat were prepared and evaluated for combing force reduction."}, "[4]": {"experiment": "Warehouse storage stability of flaked samples in a stability oven at 95° F", "type": "physicochemical", "conditions": "flaked sample, stability oven set at 95° F, after 8 weeks", "method": "The diester compositions may be blended with, for example, alkylamidopropyl dimethylamines, such as Incromine BD supplied by Croda Inc., to yield a waxy flakeable or pastillatable composition with improved high temperature warehouse storage stability. Stability in this case being defined as resistance of the waxy particles from fusing together at elevated warehouse storage temperatures of about 95° F. Additional information on flakeability/pastillatability can be found in U.S. Pat. No. 6,638,497, the disclosure of which is hereby incorporated by reference herein.\nIn some embodiments, it is desirable that the diesters of the claimed invention be either liquids or waxy solids in pastille form at room temperature for ease of use. […] By adding behenamidopropydimethylamine, the high temperature storage stability of the diester was increased, allowing for it to be warehoused or transported in conditions were the temperature can exceed 95° F. without the pastilles fusing together."}, "[5]": {"conditions": "wet combing, lotion with 1.5 % Example 3 Quat, average of 10 tresses"}}}
{"substance": "Methosulfate QUAT of PPG-6 N-Methyldiethanolamine Di-Behenate [Example 3]", "values": [{"measurement": "Biodegraded", "setting": "[1]", "result": 67, "unit": "%"}, {"measurement": "48 hour EC50 (aquatic toxicity)", "setting": "[2]", "result": "> 100", "unit": "µg/mL"}, {"measurement": "Conditioning (in words)", "setting": "[3]; lotion with the quat, versus lotion without", "result": "improved conditioning"}, {"measurement": "% Change of Combing Force (gmf)", "setting": "[3]; [5]", "result": "−84.62", "unit": "%"}, {"measurement": "% Change of Total Work Done (Joules)", "setting": "[3]; [5]", "result": "−88.76", "unit": "%"}, {"measurement": "Warehouse storage stability (state of flakes)", "setting": "[4]", "result": "fused together"}]}
